These results are taken from publication PMC6050284, “Molecular characterization and functional differentiation of three pheromone-binding proteins from Tryporyza intacta” (Scientific Reports, 2018).

Parameters in all cases: species or system Tryporyza intacta
One experiment deals with TintPBP1 (Scirpophaga excerptalis, UniProt A0A345D2V5). Put plainly: Fluorescence competitive binding assay with 1-NPN probe, TintPBP1. The note with it: for Ki: calculated from IC50, 1-NPN probe; for IC50: displacement of 1-NPN (2 μM), 25 °C; for Binding to TintPBP1 in competitive binding (in words): competitor 0.5–10.0 μM. The protocol:
(§1) To measure the affinities of the sex pheromones to TintPBP1-3 proteins, we used N-Phenyl-1-naphthylamine (1-NPN) as the fluorescent probe on a Hitachi F-4500 at 25 °C based on the method of Mao et al.[17]. 1-NPN was used as the fluorescent reporter (2 μM) and 0.5–10.0 μM for each competitor was used to test fluorescence competitive binding affinities of sex pheromones. Six compounds were selected and measured in competitive binding assays. The dissociation constant for 1-NPN and binding results were analyzed by Prism software. Each of IC50 values (concentrations of ligands halving the initial fluorescence value of 1-NPN) from competitors were calculated using following equation: Ki=[IC50]/1+[1−NPN]/K1−NPN, where [1-NPN] is the free concentration of 1-NPN and K1−NPN is the dissociation constant of the complex protein/1-NPN.

For another experiment, the target named is TintPBP2 (Scirpophaga excerptalis, UniProt A0A345D2V6). The experiment is described as follows: Fluorescence competitive binding assay with 1-NPN probe, TintPBP2. To be noted: for Ki: calculated from IC50, 1-NPN probe; for IC50: displacement of 1-NPN (2 μM), 25 °C; for Binding to TintPBP2 in competitive binding (in words): competitor 0.5–10.0 μM. The protocol:
as §1

The next experiment concerns the target TintPBP3 (Scirpophaga excerptalis, UniProt A0A345D2V7). Put plainly: Fluorescence competitive binding assay with 1-NPN probe, TintPBP3. To be noted: for Ki: calculated from IC50, 1-NPN probe; for IC50: displacement of 1-NPN (2 μM), 25 °C; for Binding to TintPBP3 in competitive binding (in words): competitor 0.5–10.0 μM. The protocol: as §1

Sequence of TintPBP1 (A0A345D2V5 entry or part of it): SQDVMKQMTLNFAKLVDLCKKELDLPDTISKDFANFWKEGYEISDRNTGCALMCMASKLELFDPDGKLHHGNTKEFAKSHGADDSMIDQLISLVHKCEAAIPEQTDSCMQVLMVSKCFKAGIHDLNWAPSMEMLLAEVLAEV
Sequence of TintPBP2 (A0A345D2V6 entry or part of it): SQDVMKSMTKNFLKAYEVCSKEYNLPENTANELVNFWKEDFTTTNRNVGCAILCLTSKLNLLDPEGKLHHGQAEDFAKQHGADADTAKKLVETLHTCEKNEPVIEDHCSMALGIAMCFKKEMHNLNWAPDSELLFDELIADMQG
Sequence of TintPBP3 (A0A345D2V7 entry or part of it): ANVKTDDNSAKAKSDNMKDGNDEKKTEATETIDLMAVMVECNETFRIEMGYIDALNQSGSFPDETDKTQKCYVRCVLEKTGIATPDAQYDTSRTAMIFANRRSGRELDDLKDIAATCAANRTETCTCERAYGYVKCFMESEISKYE

Consider `CCCC/C=C/CCCCCCCCCC=O` [E11–16: Ald], for which the Ki on TintPBP1 was 2.15 ± 0.16 µM; at TintPBP2, 3.58 ± 0.13 µM; at TintPBP3, 3.45 ± 0.21 µM. Besides, the IC50 is 3.09 ± 0.22 µM on TintPBP1, 4.78 ± 0.17 µM at TintPBP2 and 4.08 ± 0.24 µM on TintPBP3.

For the molecule `CCCC/C=C\CCCCCCCCCCCCOC(C)=O` [Z13–18:AC], on TintPBP1, the “Binding to TintPBP1 in competitive binding (in words)” value (from here on “Binding to TintPBP1”) is “cannot bind”. Further, the “Binding to TintPBP2 in competitive binding (in words)” value (“Binding to TintPBP2” for short) on TintPBP2 is on record as “cannot bind”. Also, the “Binding to TintPBP3 in competitive binding (in words)” value (“Binding to TintPBP3” for short) at TintPBP3 was “cannot bind”.

Consider `CCCC/C=C\CCCCCCCCCCOC(C)=O` [Z11–16:AC], for which the “Binding to TintPBP1” value at TintPBP1 was “cannot bind”. The “Binding to TintPBP2” value on TintPBP2 is recorded as “cannot bind”. Besides, the “Binding to TintPBP3” value on TintPBP3 is listed as “cannot bind”.

As to `CCCC/C=C\CCCCCCCCCC=O` [Z11–16: Ald], the Ki on TintPBP1 was 2.95 ± 0.04 µM; on TintPBP2, 2.83 ± 0.11 µM; on TintPBP3, 3.96 ± 0.28 µM. Besides, the IC50 on TintPBP1 stood at 4.27 ± 0.05 µM; at TintPBP2, 3.81 ± 0.15 µM; on TintPBP3 it was 4.66 ± 0.33 µM.

Consider `CCCC/C=C\CCCCCCCCCCO` [Z11–16:OH], for which, at TintPBP1, the “Binding to TintPBP1” value was “cannot bind”. Also, at TintPBP2, the “Binding to TintPBP2” value was “cannot bind”. At TintPBP3, the “Binding to TintPBP3” value is listed as “cannot bind”.

With `CCCC/C=C\CCCCCCCCCCCCO` [Z13–18:OH], the “Binding to TintPBP1” value on TintPBP1 was “cannot bind”. Besides, the “Binding to TintPBP2” value on TintPBP2 is recorded as “cannot bind”. Besides, the “Binding to TintPBP3” value at TintPBP3 was “cannot bind”.
